Assay: xn = mol fraction of the nth substance listed

C[C@@H](O)[C@H](N)C(=O)O + CCCC[n+]1ccn(C)c1.[Br-] + O
viscosity [mPa·s], 101.3 kPa
Conditions | x1 = 0.0003603, x2 = 0 | x1 = 0.0007221, x2 = 0 | x1 = 0.001078, x2 = 0 | x1 = 0.001438, x2 = 0 | x1 = 0.001779, x2 = 0 | x1 = 0.002158, x2 = 0 | x1 = 0.002516, x2 = 0
293.15 K | 1.009 | 1.016 | 1.023 | 1.03 | 1.037 | 1.044 | 1.051
298.15 K | 0.897 | 0.904 | 0.911 | 0.918 | 0.925 | 0.933 | 0.94
303.15 K | 0.804 | 0.811 | 0.818 | 0.825 | 0.833 | 0.84 | 0.847
308.15 K | 0.727 | 0.734 | 0.741 | 0.748 | 0.755 | 0.763 | 0.77
313.15 K | 0.661 | 0.668 | 0.675 | 0.682 | 0.689 | 0.697 | 0.704

CCCC[N+](C)(C)C.O=S(=O)([N-]S(=O)(=O)C(F)(F)F)C(F)(F)F + O=S(=O)([N-]S(=O)(=O)C(F)(F)F)C(F)(F)F.[Li+] + O
viscosity [mPa·s], 100 kPa
Conditions | 293.15 K | 298.15 K | 303.15 K | 313.15 K | 323.15 K | 333.15 K | 343.15 K | 353.15 K | 363.15 K
x2 = 0.2745, x1 = 0.2745 | 100 | 78 | 59 | 38.1 | 26.5 | 19 | 14.2 | 10.9 | 8.61
x2 = 0.3106, x1 = 0.2745 | 150 | 115 | 88.9 | 53.9 | 35.5 | 24.7 | 18.1 | 13.7 | 10.6
x2 = 0.3509, x1 = 0.2745 | 264 | 192 | 145 | 87.4 | 51 | 34.7 | 24.6 | 18.2 | 13.9
x2 = 0.3868, x1 = 0.2745 | 341 | 245 | 182 | 106 | 65.4 | 43.1 | 30.1 | 21.3 | 16.5
x2 = 0.4308, x1 = 0.2745 | 494 | 401 | 289 | 162 | 99 | 58.8 | 40.6 | 28.8 | 21.2

O=C1OCCO1 + CC[n+]1ccn(C)c1.O=S(=O)([N-]S(=O)(=O)C(F)(F)F)C(F)(F)F
100 kPa
Conditions | electrical conductivity [S/m] | viscosity [mPa·s]
293.15 K, x1 = 0.8163 | – | 5
293.15 K, x1 = 0.98 | 0.62 | –
303.15 K, x1 = 0.5263 | – | 11.5
303.15 K, x1 = 0.7476 | – | 6.1
313.15 K, x1 = 0.95 | 1.42 | –
333.15 K, x1 = 0.8163 | – | 2.4
333.15 K, x1 = 0.95 | 1.84 | –
343.15 K, x1 = 0.5263 | – | 4.6
343.15 K, x1 = 1 | – | 1.16
353.15 K, x1 = 0.66 | 4.47 | –
353.15 K, x1 = 0.82 | 4.06 | –
353.15 K, x1 = 0.9467 | – | 1.33
353.15 K, x1 = 0.98 | 1.37 | –
363.15 K, x1 = 0.8163 | – | 1.56
373.15 K, x1 = 0.5263 | – | 3
373.15 K, x1 = 1 | – | 0.85
383.15 K, x1 = 0.7476 | – | 1.63
393.15 K, x1 = 0.7476 | – | 1.49
393.15 K, x1 = 0.9467 | – | 0.91

CCCCCCCCCCCCCCCC[n+]1ccccc1.O=C([O-])C(O)c1ccccc1 + CC(C)C[C@H](N)C(=O)O + O
electrical conductivity [S/m], 101 kPa
Conditions | 293.15 K | 298.15 K | 303.15 K | 308.15 K | 313.15 K
x1 = 9.1e-07, x2 = 0.001799 | 0.00171 | 0.00194 | 0.00216 | 0.0024 | 0.0027
x1 = 1.08e-06, x2 = 0 | 0.00061 | 0.00068 | 0.00076 | 0.00083 | 0.0009
x1 = 1.27e-06, x2 = 0.0009002 | 0.00143 | 0.0016 | 0.0018 | 0.002 | 0.0022
x1 = 1.98e-06, x2 = 0 | 0.001 | 0.0012 | 0.0013 | 0.0014 | 0.0016
x1 = 2.19e-06, x2 = 0.001799 | 0.00211 | 0.00239 | 0.00267 | 0.003 | 0.0033
x1 = 2.54e-06, x2 = 0.0009002 | 0.00187 | 0.00211 | 0.00235 | 0.0026 | 0.0029
x1 = 2.88e-06, x2 = 0 | 0.00147 | 0.0016 | 0.0018 | 0.002 | 0.0022
x1 = 3.1e-06, x2 = 0.001799 | 0.00244 | 0.00277 | 0.00309 | 0.0034 | 0.0038
x1 = 3.44e-06, x2 = 0.0009002 | 0.0022 | 0.00251 | 0.00278 | 0.0031 | 0.0034
x1 = 3.96e-06, x2 = 0 | 0.0019 | 0.0022 | 0.0024 | 0.0026 | 0.0029
x1 = 4.19e-06, x2 = 0.001799 | 0.00279 | 0.00316 | 0.00352 | 0.0039 | 0.0043
x1 = 4.69e-06, x2 = 0 | 0.0023 | 0.0026 | 0.0029 | 0.0031 | 0.0035
x1 = 4.71e-06, x2 = 0.0009002 | 0.00261 | 0.00294 | 0.00329 | 0.0036 | 0.004
x1 = 5.1e-06, x2 = 0.001799 | 0.00312 | 0.00353 | 0.00394 | 0.0044 | 0.0048
x1 = 5.95e-06, x2 = 0 | 0.00281 | 0.0032 | 0.0035 | 0.0038 | 0.0042
x1 = 5.98e-06, x2 = 0.0009002 | 0.00307 | 0.00345 | 0.00384 | 0.0043 | 0.0047
x1 = 6.74e-06, x2 = 0.001799 | 0.00363 | 0.0041 | 0.00457 | 0.0051 | 0.0056
x1 = 7.21e-06, x2 = 0 | 0.00341 | 0.0038 | 0.0042 | 0.0046 | 0.0051
x1 = 7.43e-06, x2 = 0.0009002 | 0.00352 | 0.00397 | 0.00441 | 0.0049 | 0.0054
x1 = 8.2e-06, x2 = 0.001799 | 0.00408 | 0.00463 | 0.00516 | 0.0057 | 0.0064
x1 = 8.7e-06, x2 = 0.0009002 | 0.00394 | 0.00445 | 0.00497 | 0.0055 | 0.0061
x1 = 8.83e-06, x2 = 0 | 0.00406 | 0.0046 | 0.005 | 0.0055 | 0.006
x1 = 9.84e-06, x2 = 0.001799 | 0.00451 | 0.00511 | 0.00572 | 0.0064 | 0.0071
x1 = 1.045e-05, x2 = 0 | 0.00469 | 0.0053 | 0.0058 | 0.0065 | 0.0071
x1 = 1.051e-05, x2 = 0.0009002 | 0.00444 | 0.00501 | 0.0056 | 0.0062 | 0.0069
x1 = 1.13e-05, x2 = 0.001799 | 0.00486 | 0.00551 | 0.00618 | 0.0069 | 0.0077
x1 = 1.196e-05, x2 = 0.0009002 | 0.00475 | 0.00538 | 0.006 | 0.0067 | 0.0075
x1 = 1.207e-05, x2 = 0 | 0.00516 | 0.0058 | 0.0064 | 0.0071 | 0.0079
x1 = 1.294e-05, x2 = 0.001799 | 0.00522 | 0.00591 | 0.00661 | 0.0074 | 0.0082
x1 = 1.323e-05, x2 = 0.0009002 | 0.00506 | 0.00573 | 0.0064 | 0.0071 | 0.0079
x1 = 1.351e-05, x2 = 0 | 0.00562 | 0.00631 | 0.007 | 0.0077 | 0.0085
x1 = 1.44e-05, x2 = 0.001799 | 0.00556 | 0.00629 | 0.00704 | 0.0079 | 0.0088
x1 = 1.468e-05, x2 = 0.0009002 | 0.00539 | 0.00609 | 0.0068 | 0.0076 | 0.0084
x1 = 1.478e-05, x2 = 0 | 0.00603 | 0.0068 | 0.0075 | 0.0083 | 0.0092
x1 = 1.585e-05, x2 = 0.001799 | 0.00586 | 0.00664 | 0.00743 | 0.0083 | 0.0092
x1 = 1.595e-05, x2 = 0.0009002 | 0.00568 | 0.00642 | 0.0072 | 0.008 | 0.0089
x1 = 1.622e-05, x2 = 0 | 0.00644 | 0.0072 | 0.008 | 0.0089 | 0.0098
x1 = 1.722e-05, x2 = 0.0009002 | 0.00598 | 0.00676 | 0.0075 | 0.0084 | 0.0093
x1 = 1.731e-05, x2 = 0.001799 | 0.00617 | 0.00698 | 0.00783 | 0.0087 | 0.0097
x1 = 1.766e-05, x2 = 0 | 0.00687 | 0.0077 | 0.0085 | 0.0094 | 0.0104
